Test results reported in PubChem BioAssay (NCI).
Values joined by “and” are separate entries in the source; they are usually repeats but may differ in a detail not shown here. Identical values can stand only once.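 Cultured in 96-well plates, cells were exposed to test compound for 48 hours across five concentrations. At the GI50, growth is halved. TGI is the concentration that stops growth completely.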

How the values were obtained:
Test in all cases: NCI anticancer screen, dose series, 48 h
COLO 205 colon = test system: COLO 205 colon
HOP-92 NSCLC = test system: HOP-92 NSCLC
MALME-3M melanoma = test system: MALME-3M melanoma
MOLT-4 leukemia = test system: MOLT-4 leukemia
RXF 393 renal = test system: RXF 393 renal
SK-OV-3 ovarian = test system: SK-OV-3 ovarian
UO-31 renal = test system: UO-31 renal
SF-539 CNS = test system: SF-539 CNS
DU-145 prostate = test system: DU-145 prostate
HS 578T breast = test system: HS 578T breast

| Structure (SMILES) | TGI (COLO 205 colon) | TGI (HOP-92 NSCLC) [µM] | TGI (MALME-3M melanoma) | TGI (MOLT-4 leukemia) | TGI (RXF 393 renal) | TGI (SK-OV-3 ovarian) | TGI (UO-31 renal) | TGI (SF-539 CNS) | GI50 (COLO 205 colon) | GI50 (DU-145 prostate) | TGI (DU-145 prostate) | GI50 (HS 578T breast) [µM] | TGI (HS 578T breast) [µM] | GI50 (MALME-3M melanoma) | GI50 (MOLT-4 leukemia) [µM] | GI50 (RXF 393 renal) [µM] | GI50 (SF-539 CNS) | GI50 (SK-OV-3 ovarian) [µM] | GI50 (UO-31 renal) | GI50 (HOP-92 NSCLC) [µM] |
| --- | --- | --- | --- | --- | --- | --- | --- | --- | --- | --- | --- | --- | --- | --- | --- | --- | --- | --- | --- | --- |
| C=C(c1ccccc1)c1cc2c(=O)[nH]ccc2n1C | 35.6 µM | 61.3 | > 100 µM | > 100 µM | 86.1 µM | 69.4 µM | 66.1 µM | – | – | – | – | – | – | – | – | – | – | – | – | – |
| NCCOCCOCC(=O)O | – | > 100 | > 100 µM | > 100 µM | > 100 µM | > 100 µM | > 100 µM | > 100 µM | – | – | – | – | – | – | – | – | – | – | – | – |
| O=C(O)C12C=CC(C1)c1ccccc12 (stereo unspecified) | > 100 µM | > 100 | > 100 µM | > 100 µM | – | > 100 µM | > 100 µM | – | – | – | – | – | – | – | – | – | – | – | – | – |
| O=C(O)C1CC2C=CCC(C2)C1 (stereo unspecified) | > 100 µM | > 100 | > 100 µM | > 100 µM | > 100 µM | > 100 µM | > 100 µM | – | – | – | – | – | – | – | – | – | – | – | – | – |
| CCNC(=O)COc1ccc(Cl)c(C)c1 | > 100 µM | > 100 | > 100 µM | > 100 µM | > 100 µM | > 100 µM | > 100 µM | > 100 µM | – | – | – | – | – | – | – | – | – | – | – | – |
| C=C(CN1CCc2ccccc2C1)c1ccc(CCCC(=O)Nc2ccccc2N)cc1 | 33.1 µM | – | 25.7 µM | 15.3 µM | 35.7 µM | 52.9 µM | 17.7 µM | 24 µM | 17 µM | 11.3 µM | 30.4 µM | 14 | 43.4 | 11.7 µM | 1.28 | 17.1 | 11.4 µM | 19.4 | 2.7 µM | – |
| OC(Cc1cccc2ccccc12)CN1CCC(c2ccccc2)CC1 (stereo unspecified) | 25.6 µM | 27.4 | – | – | 23 µM | 31.3 µM | 0.176 µM | 31.1 µM | – | – | 31.9 µM | – | 32.4 | – | – | – | – | – | – | – |
| C=C(CN1CCN(c2ccccn2)CC1)c1ccc(C(=O)Nc2ccccc2N)cc1 | 5.74 µM | 23.1 | – | – | 13 µM | 4.44 µM | 7.57 µM | 8.87 µM | 1.71 µM | 2.52 µM | 18.5 µM | 1.11 | 6.28 | – | – | 1.55 | 1.5 µM | 1.3 | 1.8 µM | 5.7 |
| COc1ccc(OCC(=O)O)c2c1CCC(C)C2=O (stereo unspecified) | > 100 µM | – | > 100 µM | > 100 µM | – | > 100 µM | > 100 µM | > 100 µM | – | – | – | – | – | – | – | – | – | – | – | – |
| Cc1c(-c2ccc(-c3ccccc3F)cc2)nc2ccc(F)cc2c1C(=O)O | 97.7 µM and 234 µM | 88.6 | 107 µM and 293 µM | 66.7 µM and 71.7 µM and 294 µM | 121 µM and 236 µM | 86.5 µM and 603 µM | 78.9 µM and 105 µM | 25.6 µM and 110 µM and 29.9 µM | 17.4 µM and 3.81 µM | 0.867 µM and 1.18 µM | 119 µM and 343 µM | – | – | 22.7 µM and 43.9 µM | 0.5 | 76 | 0.0959 µM and 0.5 µM | > 41.2 | 1.85 µM and 2.65 µM | 27.7 |
| COC(OC)c1cccnc1C | > 100 µM | > 100 | > 100 µM | > 100 µM | > 100 µM | > 100 µM | > 100 µM | > 100 µM | – | – | – | – | – | – | – | – | – | – | – | – |
| O=C1C(=O)N(c2cc(Cl)ccc2Cl)C(=O)C(=O)C1c1nc2ccccc2s1 | > 100 µM | > 100 | > 100 µM | – | > 100 µM | > 100 µM | 90.8 µM | > 100 µM | – | – | – | – | – | – | – | – | – | – | – | – |
| OC[C@H]1N[C@H](CO)[C@@H](O)[C@H]1O | > 100 µM | – | > 100 µM | > 100 µM | > 100 µM | > 100 µM | > 100 µM | > 100 µM | – | – | > 100 µM | – | > 100 | – | – | – | – | – | – | – |
| Cc1nc(Nc2ccc(Cl)cc2)sc1C(=O)Nc1cccc2c(=O)[nH][nH]c(=O)c12 | 34 µM | 38.8 | 80.3 µM | 50.4 µM | 69.2 µM | > 100 µM | > 100 µM | > 100 µM | – | – | – | – | – | – | – | – | – | – | – | – |
| CC(C)(C1=NC(C(C)(C)C)CO1)C1=N[C@@H](C(C)(C)C)CO1 (stereo partly specified) | > 100 µM | > 100 | > 100 µM | > 100 µM | > 100 µM | > 100 µM | > 100 µM | > 100 µM | – | – | – | – | – | – | – | – | – | – | – | – |
| Nc1ccc(C(=O)N/C(=C\c2ccc3c(c2)OCO3)c2nc3ccccc3s2)cc1 | 34.9 µM | 24.7 | – | – | 27.9 µM | 36.2 µM | 29 µM | 31.4 µM | – | – | – | – | – | – | – | – | – | – | – | – |
| CN(C)C(=S)/N=c1\ssc(=Nc2ccccc2)n1-c1ccccc1 | – | 46 | > 100 µM | > 100 µM | 44.3 µM | 80.5 µM | > 100 µM | 32 µM | – | – | – | – | – | – | – | – | – | – | – | – |
| COc1c2c(c(O)c3c4c(c(C)cc13)C1OC3(C(OC)OC5CC(C)(O)C(OC6CC(C)(O)C(O)C(C)O6)C(C)O5)OC1C(OC)(O4)C31CO1)C(=O)C(O)CC2OC1CC(C)(O)C(OC(C)=O)C(C)O1 (stereo unspecified) | – | < 0.01 | < 0.01 µM | 0.102 µM | < 0.01 µM | 0.714 µM | 0.154 µM | < 0.01 µM | – | – | – | – | – | – | – | – | – | – | – | – |
| C/C(=C\c1ccccc1)C(=O)c1c(C)cc(C)cc1C | > 100 µM | > 100 | > 100 µM | > 100 µM | > 100 µM | > 100 µM | > 100 µM | > 100 µM | – | – | – | – | – | – | – | – | – | – | – | – |
| Cc1cccc(C=NC23CC4CC(CC(C4)C2)C3)c1 | > 100 µM | > 100 | > 100 µM | > 100 µM | > 100 µM | > 100 µM | > 100 µM | > 100 µM | – | – | – | – | – | – | – | – | – | – | – | – |
| COC(=O)CCC(NC(=S)N/N=C(\C)c1cccs1)C(=O)OC (stereo unspecified) | > 100 µM | > 100 | > 100 µM | – | > 100 µM | > 100 µM | > 100 µM | > 100 µM | – | – | – | – | – | – | – | – | – | – | – | – |
| O=C(NCCCN1CCN(CCCNC(=O)Nc2cc(Cl)ccc2Cl)CC1)Nc1cc(Cl)ccc1Cl | > 100 µM | > 100 | 54.1 µM | > 100 µM | > 100 µM | > 100 µM | > 100 µM | > 100 µM | – | – | – | – | – | – | – | – | – | – | – | – |
| c1ccc(N2CCN(CCN3CCc4c([nH]c5ccccc45)C3c3cccnc3)CC2)cc1 (stereo unspecified) | – | 92.5 | – | > 100 µM | – | 95.2 µM | > 100 µM | > 100 µM | – | – | – | – | – | – | – | – | – | – | – | – |
| CCOC(=N)CC(=O)Nc1ccccc1CC | > 100 µM | – | > 100 µM | > 100 µM | > 100 µM | > 100 µM | > 100 µM | > 100 µM | – | – | – | – | – | – | – | – | – | – | – | – |
| Cn1cnnc1Sc1c([N+](=O)[O-])nc(-c2ccc([N+](=O)[O-])cc2)n1C | 28.3 µM | 34.9 | 29.5 µM | 31.8 µM | – | > 100 µM | 28 µM | 33.2 µM | – | – | – | – | – | – | – | – | – | – | – | – |
